Here are results for 90 compounds from a melting point compilation (Tetko et al.; mined from patent text by program, amines drawn as free bases though some values may be those of a salt).

As usually defined, the melting point is the temperature, or range, at which the solid turns liquid.

Turning to `CCCCn1c(=O)c2c(NC)n[nH]c2n(CCCl)c1=O`, the melting point was in the range of 270 to 272 °C.

`O=[N+]([O-])c1cccc(Oc2cc(Oc3cccc([N+](=O)[O-])c3)cc(C(F)(F)F)c2)c1`: the melting point is 118 °C.

Take `O=C(O)c1cc2c(F)ccc(Br)c2s1`: the melting point is 249 to 252 °C.

For the compound `Cc1nc(-c2cnccn2)no1`, the melting point was in the range of 100 to 104 °C.

For the compound `CN(C)CCNC1=CC(=O)c2oc(-c3cc(F)c(F)c(F)c3)nc2C1=O`, the melting point is 200 to 201 °C.

For the compound `O=C(O)CCNC(=O)NCC(CS)c1ccccc1` (stereo not given), the melting point fell in the range of 88 to 90 °C.

Take `CCC(=O)Nc1ccccc1C(F)(F)F`: the melting point is 86 °C.

`Cc1nnc(-c2ccccc2F)n2nc(OCc3ncnn3C)c(-c3ccoc3)c12`: the melting point is 150 to 153 °C.

`Cc1ccc(CCc2cc3c(s2)NC(=S)CN=C3c2ccccc2Cl)cc1` had a melting point of 190 to 191 °C.

Regarding `CS(=O)(=O)N1CCSc2cccc(F)c2C1`, the melting point was in the range of 115 to 117 °C.

In turn, `CC(C)(C)c1ccc(CCCCC(=O)CC2CCCCC2)cc1NC(=O)CC1c2ccccc2Oc2ccccc21` yielded a melting point of 126 to 127 °C.

On to `COC(=O)COc1ccc2c(c1)sc1cc3ccccc3c(-c3ccc(O)cc3)c12`, for which the melting point is 229 to 231 °C.

Regarding `CSC(=C[N+](=O)[O-])NCCSCc1ccco1`, the melting point was in the range of 68 to 70 °C.

Consider `CC(=O)OCc1ccc(Cl)cc1C(O)c1ccccc1` (stereo not given), for which the melting point is 86 to 88 °C.

The compound `O=C(C[C@@H](CCCC1CCCCC1)c1nc(CN2CCOCC2)co1)NO` returned a melting point of 117 to 119 °C.

As to `COc1ccc(C(=O)Nc2ccc(F)c(F)c2)cc1NCc1cccc(C(=O)O)c1`, the melting point was 240 to 243 °C.

In turn, `O=C(Nc1ccc(OCC2CCCO2)c([N+](=O)[O-])c1)OCCCl` (stereo not given) yielded a melting point of 84 to 86 °C.

`Cn1cccc1C(=O)Nc1cccc(C=CC(=O)N2CC(CCl)c3ccc([N+](=O)[O-])cc32)c1` (stereo not given) returned a melting point of 215 °C.

In the case of `CCn1nc(-c2cccs2)c(C(=O)OCCOC(C)=O)c(Nc2cncc3ccccc23)c1=O`, the melting point was 155 to 157 °C.

`COc1cc(CO[Si](C(C)C)(C(C)C)C(C)C)ccc1OCc1nc(-c2cccc(-c3nnn[nH]3)c2)oc1C` yielded a melting point of 152 to 153 °C.

Compound `O=C(N[C@H]1CC[C@H](CCN2CCN(c3nccc4c3CCO4)CC2)CC1)c1ccc(-c2ccccc2)cc1` yielded a melting point of 232 °C.

The compound `O=C(/C=C/c1ccccc1Cl)Nc1ccc(-n2nc(C(F)(F)F)cc2C(F)(F)F)cc1` displayed a melting point of 173 to 175 °C.

In turn, `FC(F)(F)c1cc(Br)cc(C(F)(F)F)n1` registered a melting point of 92 to 95 °C.

In the case of `COC(=O)c1snnc1C1CC1`, the melting point was determined as 47 °C.

Turning to `COc1cc(C(=O)O)ccc1Cc1cccc2ccc(CCCC(=O)N3CCOCC3)cc12`, the melting point fell in the range of 160 to 161 °C.

In turn, `Cc1nc2cc(F)ccc2c(=O)n1C1CCC(=O)NC1=O` (stereo not given) registered a melting point of 243 to 245 °C.

Compound `CCC(O)(c1ccc(OCc2ccccc2)cc1)c1cccc(Cl)c1` (stereo not given) displayed a melting point of 52 to 53 °C.

For `COc1cc(OC)nc(C(C)c2ccccc2N)n1` (stereo not given), the melting point is 136 to 139 °C.

For the compound `Cc1cc(O)c(C(C)(C)C)cc1SC(Sc1cc(C(C)(C)C)c(O)cc1C)Sc1cc(C(C)(C)C)c(O)cc1C`, the melting point fell in the range of 204 to 205 °C.

With `O=S(=O)(Cl)C(F)(F)C(F)(F)C(F)(F)C(F)(F)C(F)(F)C(F)(F)C(F)(F)C(F)(F)F`, the melting point came to 36 °C.

`NC(=O)CC(=O)NCCS` displayed a melting point of 100 °C.

Compound `CNC(=O)[C@@H](NC(=O)[C@@H](CC(=O)O)n1ccc(-c2ccc(C#N)cc2)c1)C(C)(C)C` gave a melting point of 138 to 140 °C.

The compound `c1cc2c(cc1-c1nnc(SCC3CC3)o1)CCO2` gave a melting point of 57 to 58 °C.

On to `COc1ccc(C(=CC(=O)N2CCOCC2)c2ccc(-c3ccccc3)cc2)cc1OC`, for which the melting point lay within 127 to 128 °C.

For `O=C(OC1C(OCCBr)OC(COCc2ccccc2)C(O)C1OC(=O)c1ccccc1)c1ccccc1` (stereo not given), the melting point fell in the range of 78 to 80 °C.

`COc1ccc(C(F)(F)F)cc1C(=O)c1ccc(C#N)cc1` showed a melting point of 88 °C.

The compound `O=C(O)CCOCc1ccccc1` had a melting point of 35.2 °C.

Compound `O=C(Cc1ccccc1)NCC(=O)c1ccccc1` displayed a melting point of 66 to 77 °C.

In turn, `OCC#CCCCCCCC#Cc1ccc(O)c(O)c1` registered a melting point of 81 to 83 °C.

`C=C(C)C(=O)OC1=CC(C(=O)O)C(O)(C(C)=O)C=C1` (stereo not given) showed a melting point of 150 °C.

As for `CCOC(=O)c1ccc2cc(-c3cccc4ccccc34)ccn2c1=O`, the melting point is 245 to 247 °C.

Compound `Cn1cnnc1Sc1nc(-c2ccc(Cl)cc2)c(CCC(=O)O)o1` displayed a melting point of 186 to 188 °C.

As for `CCOC(=O)CN(C)C(=O)c1ccn2c1CNc1ccccc1C2`, the melting point lay in the range of 147 to 148 °C.

As for `CCOCC1=NNC(=O)N(N=Cc2cccnc2)C1`, the melting point lay within 156 to 158 °C.

In turn, `CCOC(=O)C1(O)COc2cc3ccc(=O)[nH]c3cc2C1=O` (stereo not given) displayed a melting point of over 300 °C.

Compound `Cc1cc(C#N)c(C)c(C(=O)Nc2ccc(C#N)cn2)n1` displayed a melting point of 216 °C.

In turn, `N#Cc1ccc(C(=Cc2ccc(C#N)cn2)Cn2cncn2)cc1` came in with a melting point of 211 °C.

Consider `CC(C)(C)OC(=O)N1CCC(COc2ccc([N+](=O)[O-])cc2)CC1`, for which the melting point was in the range of 130 to 131 °C.

In turn, `CN1C(=O)C(NC(=O)Nc2cccc3ccccc23)N=C(c2ccccc2)c2ccccc21` (stereo not given) yielded a melting point of 234 to 235 °C.

Compound `CC(=O)C(Cc1cc(Cl)cc(Cl)c1)C(C)=O` registered a melting point of 85 to 87 °C.

`Fc1ccc(-c2cc(Cl)c3cc(Cl)ccc3n2)cc1` showed a melting point of 150 to 156 °C.

Turning to `CC(=O)N(CCN1CCNC1=C(C#N)C#N)Cc1ccc(CN2CCCCC2)o1`, the melting point lay in the range of 166 to 167 °C.

Compound `O=C(Nc1cccnc1)N1CCc2ccc(Cl)cc21` returned a melting point of 204 to 205 °C.

As for `COC(=O)C1=C(C)NC(C)=C(C(=O)OCCN2C(=O)c3ccccc3C2=O)C1c1cccc([N+](=O)[O-])c1` (stereo not given), the melting point is 182 °C.

As to `O=C(CSc1cccc(Br)c1)c1ccc2[nH]c3ncc(Cl)cc3c2c1`, the melting point was 229 to 230 °C.

In the case of `O=C1OC(=O)c2c1cccc2C(Cl)(Cl)Cl`, the melting point lay within 121 to 124 °C.

As for `CCCCN(C1CCCOc2ccccc21)S(=O)(=O)CC` (stereo not given), the melting point is 62 to 65 °C.

Regarding `CCOC(=O)N1CCC(n2cnc3ccc(-c4nnc(C)o4)cc32)CC1`, the melting point fell in the range of 179 to 180 °C.

`CCOC(=O)C(NC(=O)c1ccc(Cl)cc1)C(=O)OCC` returned a melting point of 89.5 to 90.3 °C.

`CC(=O)Nc1ccc(C(C)=NNc2ccc(C3=NNC(=O)CC3C)cc2)cc1` (stereo not given) gave a melting point of 145 to 155 °C.

As to `CNC(=O)N1N=C(c2ccc([N+](=O)[O-])cc2)c2cc(OC)c(Br)cc2CC1C` (stereo not given), the melting point fell in the range of 224 to 226 °C.

On to `COc1ccc(OC)c(C=CC(=O)C2C(=O)OC(=O)C(C(C)=O)=C2O)c1` (stereo not given), for which the melting point was in the range of 194 to 195 °C.

`Nc1c(C(=O)c2ccccc2O)oc2ccc(Cl)cc12` registered a melting point of 208 to 210 °C.

Compound `Cc1cc(C(=O)CC(O)(c2cc(Cl)cc(Cl)c2)C(F)(F)F)ccc1C(=O)O` (stereo not given) showed a melting point of 114 to 115 °C.

As for `Oc1ccc(C2(c3ccc(O)c(Cl)c3)CCCCCCCCCCC2)cc1Cl`, the melting point fell in the range of 167 to 169 °C.

For `CCOC(=O)c1nn(Cc2ccccc2F)c2ncccc12`, the melting point stood at 85 °C.

The compound `NCCc1ccc(CCC(=O)O)cc1` registered a melting point of 270 to 272 °C.

Compound `Nc1ccc([N+](=O)[O-])cc1S(=O)(=O)N1CCOCC1` registered a melting point of 204 to 206 °C.

On to `CC(C)(C)OC(=O)N[C@@H](Cc1ccccc1)[C@@H](O)[C@@H](O)C1CC1`, for which the melting point lay within 83 to 85 °C.

In turn, `COc1cc(Nc2c(C#N)cnc3cc(-c4ccc(CO)cc4)ccc23)c(Cl)cc1Cl` displayed a melting point of 264 to 267 °C.

Compound `CC(C)(C)c1ccc(-n2cc(C(=O)O)c(=O)c3ccc(-c4ccncc4)cc32)cc1` returned a melting point of 251 to 252 °C.

For the compound `COC(=O)c1ccc(C(=O)Nc2cc3c4c(c2)CCCC4(C)CCC3)cc1`, the melting point lay within 217 to 218 °C.

In turn, `O=C1CCC(n2cnc3ccc(Br)cc3c2=O)C(=O)N1` (stereo not given) had a melting point of 273 to 275 °C.

As for `N#Cc1ccc2c(c1)Sc1ccccc1CC2=O`, the melting point was 166 to 170 °C.

Compound `O=C(Nc1ccc(F)c(Cl)c1F)C(F)(F)F` displayed a melting point of 73 to 74 °C.

For the compound `COc1ccc(-n2c(=O)cc(C)c3c(=O)n(-c4ccccc4)[nH]c32)cc1`, the melting point lay within 189 to 190 °C.

Consider `COc1ccc(-c2[nH]cnc2-c2cc(OC)c([N+](=O)[O-])c(OC)c2)cc1O`, for which the melting point lay within 148 to 149 °C.

Consider `CC(=O)N(C)CCc1ccc(C=CC(=O)O)cc1`, for which the melting point is 157 to 158 °C.

Compound `Nc1ccc(CCc2nnco2)cc1` registered a melting point of 73 to 74 °C.

`CC(CC1COC(c2ccc(C(=O)Nc3ccc(C#N)cc3)cc2)OC1)C(O)(Cn1cncn1)c1ccc(F)cc1F` (stereo not given) had a melting point of 159 °C.

Regarding `O=c1cc(-c2ccncc2)cc[nH]1`, the melting point was 263 to 265 °C.

In turn, `Nc1cc(Cl)cc([N+](=O)[O-])c1C(=O)O` registered a melting point of 202 to 205 °C.

Take `Cc1cc(Nc2cnc(C(=O)N(C)CCO)c(Nc3ccc(Cl)cc3)n2)n[nH]1`: the melting point was in the range of 191 to 192 °C.

Take `CCOCCCOc1ccc2c(c1)C(N(C)S(C)(=O)=O)CC(C)(C)O2` (stereo not given): the melting point was 61 to 63 °C.

Regarding `Cn1c(-c2cc(C(F)(F)F)nn2-c2ncccc2Cl)nc2c(Cl)cccc2c1=O`, the melting point fell in the range of 155 to 157 °C.

The compound `COc1ccc2c(c1)CCC1C2=CCC2(C)C(OC(C)=O)CCC12` (stereo not given) had a melting point of 114 to 116 °C.

For `O=C1CCN(Cc2ccccn2)CC1C(c1ccccc1)c1ccccc1` (stereo not given), the melting point is 100 °C.

In the case of `COc1nc2cc(Br)cc(CNC(=O)C(=O)O)c2nc1OC`, the melting point is over 300 °C.

On to `CCCCOc1ccccc1C(O)CNC(C)Cc1ccc(OC)c(OC)c1` (stereo not given), for which the melting point was in the range of 119 to 121 °C.

For the compound `O=C(O)Cc1cc(OCc2ccccc2)ccc1OCc1ccccc1`, the melting point lay within 95.5 to 100 °C.
